# Entries after “also recorded” stand apart in the source; their conditions may differ.
# Key:
# [1] = 30 mg daily dose; patients with AD; cited from earlier work
# [2] = cited from earlier work
# [3] = tested on: Swiss albino mice (aggression, duration of attack); assay: Resident-intruder task; assay type: in vivo, mouse; settings: masupirdine 0.30 mg/kg p.o. 60 min prior; donepezil or memantine 0.30 mg/kg i.p. 30 min prior; 10 min exposure
# Protocol: Male Swiss albino mice of weight range 30-40 g (Resident) and 15-25 g (Intruder) were used. Resident mice were habituated individually with an ovariectomized female mouse in each cage for at least 2 weeks and intruders were habituated socially for at least 5 days. β-Estradiol at a dose of 0.2 mg/kg, s.c. was administered to ovariectomized female mice during habituation. After habituation for 3 weeks, the intruder was exposed to resident mice for a period of 10 min in the home cage of resident animal and duration of attack was recorded for two days (day 1 & 2). During this 10 min exposure period, ovariectomized female mice were removed from resident cage, resident animals were randomized based on their duration of attack. On day 4 (from initial exposure), resident animals were administered respective treatments. […] After post dose interval resident mice were exposed to same intruder for 10 min and duration of attack was recorded. Data were analyzed using GraphPad Prism software.
# [4] = tested on: DOI induced head twitch response (model of hallucination); assay: DOI induced head twitch response; assay type: in vivo, rat; settings: 1 mg/kg, p.o.; DOI 5 mg/kg s.c.; 10 min
# Protocol: DOI induced head twitch response is considered to be a behavioral model of hallucination (Pharmacol Rep. 2012; 64(6):1567-72). Male Wistar rats of 200-290 g were weighed and randomized according to their body weights. On day 1, rats were first habituated to the arena for 15 min. […] 15 min before the trial, rats were subjected to habituation and immediately following the habituation, DOI, 5 mg/kg s.c was administered. The rats were then placed in the arena and head twitches were recorded for 10 min. Data were analyzed using GraphPad Prism software.
# [5] = tested on: norepinephrine and dopamine levels in prefrontal cortex; assay: Microdialysis: modulation of norepinephrine and dopamine levels in cortex; assay type: in vivo, rat; settings: male Wistar rats, masupirdine 3 mg/kg p.o., donepezil or memantine 1 mg/kg s.c.
# Description: Male Wistar rats (240-300 g body weight) were stereotaxically implanted with a microdialysis guide cannula in prefrontal cortex (PFC; AP: +3.2 mm, ML: −0.5 mm, DV: −1.0 mm) under isoflurane anesthesia. […] The rats were allowed to recover individually for four days in a round bottom Plexiglas bowl with free access to feed and water.
# Sixteen hours before start of the study, a pre-equilibrated microdialysis probe (4 mm dialysis membrane) was inserted into PFC through the guide cannula. On the day of study, probe was perfused with artificial cerebrospinal fluid (aCSF; NaCl 150 mmol, KCl 3.0 mmol, MgCl2 0.9 mmol, CaCl2. 2H2O 1.7 mmol, pH 6.2) at a flow rate of 1.5 μL/min and a stabilization period of 2 h was maintained. […] Dialysates were stored below −50° C. prior to analysis.
# Norepinephrine and dopamine levels in dialysates were quantified using LC-MS/MS method.
# Statistical significance was considered at a p value less than 0.05.
compound,measurement,setting,value
CN(C)CCCC1(c2ccc(F)cc2)OCc2cc(C#N)ccc21 (centres unmarked) [Citalopram],adverse effects seen in treatment group,[1],Worsening of cognition; also recorded: QT interval prolongation
CC(C)COc1ccc(CNC(=O)N(Cc2ccc(F)cc2)C2CCN(C)CC2)cc1 [Pimavanserin],effect for agitation,[2]; AD study,no effect
same,effect on NPI-NH psychosis scale,[2]; week 6,statistically significant effect
"COc1ccc2c(c1)c(CN1CCN(C)CC1)cn2S(=O)(=O)c1ccccc1Br [masupirdine, 1-[(2-bromophenyl)sulfonyl]-5-methoxy-3-[(4-methyl-1-piperazinyl)methyl]-1H-indole]",duration of attack compared with basal,[3],equal duration of attack
same,number of head twitches,[4],significantly reduced the number of head twitches
CC12CC3CC(C)(C1)CC(N)(C3)C2 [memantine],duration of attack compared with basal,[3],decrease in duration of attack when compared with its basal; however it was not statistically significant
same,"cortical dopamine levels, AUC of percent change",[5],327.75±24.99
same,"cortical norepinephrine levels, AUC of percent change",[5],371.34±22.45
